According to the SangsterLogP compilation:

Assay: method code SF-AS, from PMID: 1608988
Details: pH 7.3

SMILES	logD
CCCCCCCCOc1cccc(NC(=O)OCCN2CCOCC2)c1	4.42
CCCCCCOc1ccc(NC(=O)OCCN2CCOCC2)cc1	3.96
CCCOc1ccc(NC(=O)OCCN2CCOCC2)cc1	2.24
CCCCCCCOc1ccc(NC(=O)OCCN2CCOCC2)cc1	4.41
CCCCCCCOc1cccc(NC(=O)OCCN2CCOCC2)c1	4.73
CCOc1ccc(NC(=O)OCCN2CCOCC2)cc1	1.63
CCCCCOc1cccc(NC(=O)OCCN2CCOCC2)c1	3.58
CCCCCCCOc1ccccc1NC(=O)OCCN1CCOCC1	3.99
CCCCCOc1ccccc1NC(=O)OCCN1CCOCC1	3.18
CCOc1ccccc1NC(=O)OCCN1CCOCC1	1.76
COc1cccc(NC(=O)OCCN2CCOCC2)c1	1.64
CCCCCOc1ccc(NC(=O)OCCN2CCOCC2)cc1	3.41
CCCCCCOc1cccc(NC(=O)OCCN2CCOCC2)c1	4.19
CCCCOc1cccc(NC(=O)OCCN2CCOCC2)c1	3.08

More lines, now with the values ahead:

logD	SMILES
3.68	CCCCCCOc1ccccc1NC(=O)OCCN1CCOCC1
2.5	CCCOc1cccc(NC(=O)OCCN2CCOCC2)c1
1.2	COc1ccccc1NC(=O)OCCN1CCOCC1
2.73	CCCCOc1ccccc1NC(=O)OCCN1CCOCC1
2.8	CCCCOc1ccc(NC(=O)OCCN2CCOCC2)cc1
4.43	CCCCCCCCOc1ccccc1NC(=O)OCCN1CCOCC1
4.8	CCCCCCCCOc1ccc(NC(=O)OCCN2CCOCC2)cc1
2.26	CCCOc1ccccc1NC(=O)OCCN1CCOCC1
